In PubChem BioAssay (NCI):
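GI50: concentration for 50% inhibition of growth. At the TGI there is no net growth.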

Legend:
Test in all cases: DTP human tumour cell line panel, 384-well format
786-0 renal = system: 786-0 renal
A498 renal = system: A498 renal
A549 NSCLC = system: A549 NSCLC
ACHN renal = system: ACHN renal
BT-549 breast = system: BT-549 breast
CAKI-1 renal = system: CAKI-1 renal
CCRF-CEM leukemia = system: CCRF-CEM leukemia
COLO 205 colon = system: COLO 205 colon
DU-145 prostate = system: DU-145 prostate
EKVX NSCLC = system: EKVX NSCLC
HCC-2998 colon = system: HCC-2998 colon
HCT-15 colon = system: HCT-15 colon
HL-60(TB) leukemia = system: HL-60(TB) leukemia
HOP-62 NSCLC = system: HOP-62 NSCLC
HOP-92 NSCLC = system: HOP-92 NSCLC
HS 578T breast = system: HS 578T breast
HT29 colon = system: HT29 colon
IGROV1 ovarian = system: IGROV1 ovarian
K-562 leukemia = system: K-562 leukemia
KM12 colon = system: KM12 colon
LOX IMVI melanoma = system: LOX IMVI melanoma
M14 melanoma = system: M14 melanoma
MALME-3M melanoma = system: MALME-3M melanoma
MCF7 breast = system: MCF7 breast
MDA-MB-231 breast = system: MDA-MB-231 breast
MDA-MB-435 melanoma = system: MDA-MB-435 melanoma
MOLT-4 leukemia = system: MOLT-4 leukemia
NCI-H226 lung = system: NCI-H226 lung
NCI-H23 lung = system: NCI-H23 lung
NCI-H322M lung = system: NCI-H322M lung
NCI-H460 NSCLC = system: NCI-H460 NSCLC
NCI-H522 lung = system: NCI-H522 lung
NCI/ADR-RES ovarian = system: NCI/ADR-RES ovarian
OVCAR-3 ovarian = system: OVCAR-3 ovarian
OVCAR-4 ovarian = system: OVCAR-4 ovarian
OVCAR-5 ovarian = system: OVCAR-5 ovarian
OVCAR-8 ovarian = system: OVCAR-8 ovarian
PC-3 prostate = system: PC-3 prostate
RPMI-8226 leukemia = system: RPMI-8226 leukemia
RXF 393 renal = system: RXF 393 renal
SF-268 CNS = system: SF-268 CNS
SF-295 CNS = system: SF-295 CNS
SF-539 CNS = system: SF-539 CNS
SK-MEL-28 melanoma = system: SK-MEL-28 melanoma
SK-MEL-5 melanoma = system: SK-MEL-5 melanoma
SK-OV-3 ovarian = system: SK-OV-3 ovarian
SN12C renal = system: SN12C renal
SNB-19 CNS = system: SNB-19 CNS
SNB-75 CNS = system: SNB-75 CNS
SR leukemia = system: SR leukemia
SW-620 colon = system: SW-620 colon
T-47D breast = system: T-47D breast
TK-10 renal = system: TK-10 renal
UACC-257 melanoma = system: UACC-257 melanoma
UACC-62 melanoma = system: UACC-62 melanoma
UO-31 renal = system: UO-31 renal

In the case of CCN1Cc2c(ccc(F)c2C#N)O[C@@H](C)CNC(=O)c2c(N)nn3ccc1nc23, the GI50 ([…]-0 renal) is reported as 1340 nM, the TGI (786-0 renal) is reported as 12900 nM and the GI50 (A498 renal) is reported as 379 nM. For the same molecule, the TGI (A498 renal) was 7560 nM, the GI50 (A549 NSCLC) was 585 nM and the TGI (A549 NSCLC) was 12100 nM. It also gave a GI50 (ACHN renal) of 385 nM, a TGI (ACHN renal) of 2060 nM and a GI50 (BT-549 breast) of 2680 nM. It also gave a TGI (BT-549 breast) of 15300 nM, a GI50 (CAKI-1 renal) of 523 nM and a TGI (CAKI-1 renal) of 1840 nM. For the same molecule, the GI50 (CCRF-CEM leukemia) was 566 nM, the TGI (CCRF-CEM leukemia) was 10800 nM and the GI50 (COLO 205 colon) was 271 nM. The TGI (COLO 205 colon) was 1010 nM, the GI50 (DU-145 prostate) was 465 nM and the TGI (DU-145 prostate) was 2880 nM. It also gave a GI50 (EKVX NSCLC) of 563 nM, a TGI (EKVX NSCLC) of 10300 nM and a GI50 (HCC-2998 colon) of 4120 nM. The TGI (HCC-2998 colon) was 20900 nM, the GI50 (HCT-15 colon) was 757 nM and the TGI (HCT-15 colon) was 10300 nM. The GI50 (HL-60(TB) leukemia) was 1140 nM, the TGI (HL-60(TB) leukemia) was 3010 nM and the GI50 (HOP-62 NSCLC) was 1210 nM. The TGI (HOP-62 NSCLC) was 11200 nM, the GI50 (HOP-92 NSCLC) was 362 nM and the TGI (HOP-92 NSCLC) was 1850 nM. For the same molecule, the GI50 (HS 578T breast) was 381 nM, the TGI (HS 578T breast) was 1950 nM and the GI50 (HT29 colon) was 694 nM. The TGI (HT29 colon) was 12400 nM, the GI50 (IGROV1 ovarian) was 566 nM and the TGI (IGROV1 ovarian) was 3350 nM. The GI50 (K-562 leukemia) was 66.4 nM, the TGI (K-562 leukemia) was 222 nM and the TGI (KM12 colon) was 14700 nM. For the same molecule, the GI50 (LOX IMVI melanoma) was 529 nM, the TGI (LOX IMVI melanoma) was 1980 nM and the GI50 (M14 melanoma) was 364 nM. It also gave a TGI (M14 melanoma) of 1850 nM, a GI50 (MALME-3M melanoma) of 436 nM and a TGI (MALME-3M melanoma) of 2410 nM. For the same molecule, the GI50 (MCF7 breast) was 3160 nM, the TGI (MCF7 breast) was 19400 nM and the GI50 (MDA-MB-231 breast) was 438 nM. It also gave a TGI (MDA-MB-231 breast) of 1970 nM, a GI50 (MDA-MB-435 melanoma) of 565 nM and a TGI (MDA-MB-435 melanoma) of 10500 nM. For the same molecule, the GI50 (MOLT-4 leukemia) was 198 nM, the TGI (MOLT-4 leukemia) was 478 nM and the GI50 (NCI-H226 lung) was 1280 nM. The TGI (NCI-H226 lung) was 4700 nM, the GI50 (NCI-H23 lung) was 264 nM and the TGI (NCI-H23 lung) was 3480 nM. For the same molecule, the GI50 (NCI-H322M lung) was 2200 nM, the TGI (NCI-H322M lung) was 18800 nM and the GI50 (NCI-H460 NSCLC) was 426 nM. It also gave a TGI (NCI-H460 NSCLC) of 11400 nM, a GI50 (NCI-H522 lung) of 528 nM and a TGI (NCI-H522 lung) of 14300 nM. The GI50 (NCI/ADR-RES ovarian) was 3890 nM, the TGI (NCI/ADR-RES ovarian) was 15800 nM and the GI50 (OVCAR-3 ovarian) was 1420 nM. It also gave a TGI (OVCAR-3 ovarian) of 11200 nM, a GI50 (OVCAR-4 ovarian) of 2400 nM and a TGI (OVCAR-4 ovarian) of 17300 nM. It also gave a GI50 (OVCAR-5 ovarian) of 735 nM, a TGI (OVCAR-5 ovarian) of 9020 nM and a GI50 (OVCAR-8 ovarian) of 2740 nM. The TGI (OVCAR-8 ovarian) was 13800 nM, the GI50 (PC-3 prostate) was 1380 nM and the TGI (PC-3 prostate) was 17600 nM. For the same molecule, the GI50 (RPMI-8226 leukemia) was 205 nM, the TGI (RPMI-8226 leukemia) was 598 nM and the GI50 (RXF 393 renal) was 1320 nM. It also gave a TGI (RXF 393 renal) of 7180 nM, a GI50 (SF-268 CNS) of 1760 nM and a TGI (SF-268 CNS) of 11900 nM. The GI50 (SF-295 CNS) was 153 nM, the TGI (SF-295 CNS) was 3020 nM and the GI50 (SF-539 CNS) was 3070 nM. It also gave a TGI (SF-539 CNS) of 13800 nM, a GI50 (SK-MEL-28 melanoma) of 620 nM and a TGI (SK-MEL-28 melanoma) of 3760 nM. The GI50 (SK-MEL-5 melanoma) was 395 nM, the TGI (SK-MEL-5 melanoma) was 5310 nM and the GI50 (SK-OV-3 ovarian) was 282 nM. It also gave a TGI (SK-OV-3 ovarian) of 2360 nM, a GI50 (SN12C renal) of 613 nM and a TGI (SN12C renal) of 4690 nM. For the same molecule, the GI50 (SNB-19 CNS) was 2840 nM, the TGI (SNB-19 CNS) was 12700 nM and the GI50 (SNB-75 CNS) was 892 nM. The TGI (SNB-75 CNS) was 5370 nM, the GI50 (SR leukemia) was 310 nM and the TGI (SR leukemia) was 1020 nM. The GI50 (SW-620 colon) was 3820 nM, the TGI (SW-620 colon) was 16400 nM and the GI50 (T-47D breast) was 946 nM. The TGI (T-47D breast) was 12300 nM, the GI50 (TK-10 renal) was 868 nM and the TGI (TK-10 renal) was 6620 nM. For the same molecule, the GI50 (UACC-257 melanoma) was 1020 nM, the TGI (UACC-257 melanoma) was 4890 nM and the GI50 (UACC-62 melanoma) was 454 nM. For the same molecule, the TGI (UACC-62 melanoma) was 2520 nM, the GI50 (UO-31 renal) was 2650 nM and the TGI (UO-31 renal) was 16300 nM.
